Consider three molecules from ChEMBL document CHEMBL3822384, “2-(3-Methoxyphenyl)quinazoline Derivatives: A New Class of Direct Constitutive Androstane Receptor (CAR) Agonists” (J Med Chem, 2016).

Data set [1] concerns the target T1, Nuclear receptor subfamily 1 group I member 3 (Homo sapiens, UniProt Q14994).
T1 sequence (Q14994 whole entry): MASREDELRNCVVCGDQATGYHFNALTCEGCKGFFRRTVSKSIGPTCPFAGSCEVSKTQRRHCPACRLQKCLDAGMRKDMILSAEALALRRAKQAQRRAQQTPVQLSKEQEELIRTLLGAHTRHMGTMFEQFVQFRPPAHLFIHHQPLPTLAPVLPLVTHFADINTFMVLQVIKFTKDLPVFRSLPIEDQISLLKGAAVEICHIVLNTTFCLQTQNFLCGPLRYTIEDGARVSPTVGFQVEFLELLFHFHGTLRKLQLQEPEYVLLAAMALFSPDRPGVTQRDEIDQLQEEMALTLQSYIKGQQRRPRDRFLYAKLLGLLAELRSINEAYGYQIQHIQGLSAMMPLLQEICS
Nature of the data set: Agonist activity at human GAL4-fused CAR LBD (108 to 348 residues) expressed in human HepG2 cells assessed as receptor binding to SRC1-VP16 fusion protein at 5 to 20 uM after 24 hrs by luciferase reporter gene assay. The class given is cell-based. Conditions: hepg2, 24 h. Background: Reporter assays use an easily measured gene product as a stand-in for the process of interest.

The target of data set [2] is T1, Nuclear receptor subfamily 1 group I member 3. Nature of the data set: Agonist activity at CAR LBD (108 to 348 residues) expressed in human HepG2 cells assessed as receptor binding to PGC1alpha by lanthascreenTR-FRET coactivator assay. A general note: TR-FRET usually uses a lanthanide donor and a delayed reading to cut background.
For the next data set, the target named is T2, AHR (Homo sapiens, UniProt P35869).
T2 sequence (P35869 whole entry): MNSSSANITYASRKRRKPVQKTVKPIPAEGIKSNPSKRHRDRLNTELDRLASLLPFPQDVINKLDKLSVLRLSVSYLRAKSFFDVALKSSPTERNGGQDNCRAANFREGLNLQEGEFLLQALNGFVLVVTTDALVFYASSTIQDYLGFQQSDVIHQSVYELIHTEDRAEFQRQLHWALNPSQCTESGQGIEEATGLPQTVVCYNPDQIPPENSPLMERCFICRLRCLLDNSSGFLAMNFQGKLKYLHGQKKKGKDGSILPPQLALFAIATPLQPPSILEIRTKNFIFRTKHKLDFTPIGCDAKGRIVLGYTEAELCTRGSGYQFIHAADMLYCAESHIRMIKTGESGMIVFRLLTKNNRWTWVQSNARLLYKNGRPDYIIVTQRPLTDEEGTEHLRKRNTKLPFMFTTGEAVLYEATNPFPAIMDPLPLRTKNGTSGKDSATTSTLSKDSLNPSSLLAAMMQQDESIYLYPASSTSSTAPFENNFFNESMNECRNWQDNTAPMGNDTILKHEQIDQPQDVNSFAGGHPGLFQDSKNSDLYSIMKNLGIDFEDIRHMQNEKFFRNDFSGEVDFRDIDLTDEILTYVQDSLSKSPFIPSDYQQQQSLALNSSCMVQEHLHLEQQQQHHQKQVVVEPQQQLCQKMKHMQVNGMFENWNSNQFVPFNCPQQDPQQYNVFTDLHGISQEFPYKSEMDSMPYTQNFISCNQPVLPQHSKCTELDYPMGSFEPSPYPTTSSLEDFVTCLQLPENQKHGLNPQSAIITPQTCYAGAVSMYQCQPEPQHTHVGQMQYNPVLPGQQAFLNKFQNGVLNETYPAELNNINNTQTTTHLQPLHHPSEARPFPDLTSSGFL
In words: (§1) Agonist activity at AHR expressed in human HepG2 cells after 24 hrs by pXRE-luciferase reporter gene assay. The format is cell-based. The following applies: human, HepG2 cells expressing AHR; read-out: Imax.

Data set [3] addresses T3, Aryl hydrocarbon receptor (Homo sapiens, UniProt P35869).
T3 sequence (P35869 whole entry): T2 sequence (P35869 whole entry)
The data set is described as §1. The format is cell-based.

The target in a further data set is T4, Vitamin D3 receptor (Homo sapiens, UniProt P11473).
T4 sequence (P11473 whole entry): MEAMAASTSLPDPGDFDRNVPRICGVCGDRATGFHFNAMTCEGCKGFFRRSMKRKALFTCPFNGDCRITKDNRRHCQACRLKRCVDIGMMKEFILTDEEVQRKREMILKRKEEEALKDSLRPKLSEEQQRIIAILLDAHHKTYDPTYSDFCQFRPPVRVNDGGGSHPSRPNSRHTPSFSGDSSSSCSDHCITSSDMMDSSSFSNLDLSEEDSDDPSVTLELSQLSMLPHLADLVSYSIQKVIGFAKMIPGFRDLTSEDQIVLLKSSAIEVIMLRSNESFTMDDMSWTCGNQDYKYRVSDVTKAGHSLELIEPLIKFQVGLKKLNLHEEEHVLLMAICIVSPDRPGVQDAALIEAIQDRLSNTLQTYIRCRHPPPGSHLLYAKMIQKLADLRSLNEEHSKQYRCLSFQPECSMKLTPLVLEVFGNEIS
Nature of the data set: Agonist activity at VDR expressed in human HuH7 cells after 24 hrs by pDR3-luciferase reporter gene assay. The format is cell-based, Huh-7.

In data set [4] the target is T5, Vitamin D3 receptor (Homo sapiens) (UniProt P11473).
T5 sequence (whole entry): T4 sequence (P11473 whole entry)
Nature of the data set: Agonist activity at VDR in human primary hepatocytes assessed as upregulation of MDR/ABCB1 mRNA expression at 10 uM after 24 hrs by qRT-PCR method. The class given is cell-based. Conditions: Hepatocyte. (In general: Quantitative PCR measures a nucleic acid by following its amplification.)

In data set [5] the target is T3, Aryl hydrocarbon receptor. Nature of the data set: Agonist activity at AHR in human HepaRG cells assessed as upregulation of CYP1B1 mRNA expression at 10 uM after 24 hrs by qRT-PCR method. The class given is cell-based.
The target in another data set is Cytochrome P450 3A4 (Homo sapiens, UniProt P08684). Nature of the data set: Inhibition of recombinant human CYP3A4 by P450-Glo luminescence assay. The class given is ADME.
Chain of Cytochrome P450 3A4 (P08684 whole entry): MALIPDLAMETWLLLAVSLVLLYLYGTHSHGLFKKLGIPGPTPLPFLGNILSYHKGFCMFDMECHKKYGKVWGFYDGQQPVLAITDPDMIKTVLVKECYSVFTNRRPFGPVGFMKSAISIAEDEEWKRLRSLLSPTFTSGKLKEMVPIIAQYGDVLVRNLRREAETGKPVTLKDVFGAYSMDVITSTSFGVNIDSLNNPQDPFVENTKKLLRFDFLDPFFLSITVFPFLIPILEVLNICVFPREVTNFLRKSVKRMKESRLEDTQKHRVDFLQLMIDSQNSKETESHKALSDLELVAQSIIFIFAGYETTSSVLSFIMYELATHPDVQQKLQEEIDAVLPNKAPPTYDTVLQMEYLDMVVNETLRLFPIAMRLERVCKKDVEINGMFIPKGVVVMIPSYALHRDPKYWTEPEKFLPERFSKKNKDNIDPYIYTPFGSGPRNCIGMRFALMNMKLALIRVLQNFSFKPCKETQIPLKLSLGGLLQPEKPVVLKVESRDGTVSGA
Another data set addresses T6, Cytochrome P450 1A2 (Homo sapiens, UniProt P05177).
T6 sequence (P05177 whole entry): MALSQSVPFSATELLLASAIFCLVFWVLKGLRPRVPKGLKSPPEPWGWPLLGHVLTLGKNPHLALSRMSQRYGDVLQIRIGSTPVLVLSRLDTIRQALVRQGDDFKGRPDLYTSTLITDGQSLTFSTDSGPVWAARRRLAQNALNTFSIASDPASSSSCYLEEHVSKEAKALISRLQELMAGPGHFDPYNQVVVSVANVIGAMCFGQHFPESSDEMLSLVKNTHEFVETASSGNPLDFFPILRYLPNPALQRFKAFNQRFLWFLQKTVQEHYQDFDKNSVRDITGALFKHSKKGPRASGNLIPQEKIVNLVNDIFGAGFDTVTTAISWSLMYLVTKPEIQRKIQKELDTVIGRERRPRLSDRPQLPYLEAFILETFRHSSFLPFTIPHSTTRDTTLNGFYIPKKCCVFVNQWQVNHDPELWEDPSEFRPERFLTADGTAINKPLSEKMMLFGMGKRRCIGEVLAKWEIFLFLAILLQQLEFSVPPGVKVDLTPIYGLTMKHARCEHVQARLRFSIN
In words: Inhibition of recombinant human CYP1A2 by P450-Glo luminescence assay. The class given is ADME.

The target of a further data set is Cytochrome P450 2C9 (Homo sapiens, UniProt P11712). Nature of the data set: Inhibition of recombinant human CYP2C9 by P450-Glo luminescence assay. The class given is ADME.
Chain of Cytochrome P450 2C9 (P11712 whole entry): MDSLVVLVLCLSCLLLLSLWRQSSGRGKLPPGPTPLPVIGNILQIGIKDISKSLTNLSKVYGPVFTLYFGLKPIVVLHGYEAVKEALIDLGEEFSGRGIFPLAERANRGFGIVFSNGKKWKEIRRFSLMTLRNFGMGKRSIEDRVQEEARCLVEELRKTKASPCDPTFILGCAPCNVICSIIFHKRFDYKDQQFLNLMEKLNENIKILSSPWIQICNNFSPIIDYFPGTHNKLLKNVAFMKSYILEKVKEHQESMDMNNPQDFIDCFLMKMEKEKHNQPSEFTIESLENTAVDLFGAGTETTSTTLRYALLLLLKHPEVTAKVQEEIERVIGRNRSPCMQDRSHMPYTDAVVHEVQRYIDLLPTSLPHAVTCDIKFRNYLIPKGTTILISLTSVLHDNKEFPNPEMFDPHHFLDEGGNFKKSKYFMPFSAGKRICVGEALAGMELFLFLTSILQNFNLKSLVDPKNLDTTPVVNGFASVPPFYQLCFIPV
The target of another data set is Cytochrome P450 2D6 (Homo sapiens, UniProt P10635). In words: Inhibition of recombinant human CYP2D6 by P450-Glo luminescence assay. The class given is ADME.
Chain of Cytochrome P450 2D6 (P10635 whole entry): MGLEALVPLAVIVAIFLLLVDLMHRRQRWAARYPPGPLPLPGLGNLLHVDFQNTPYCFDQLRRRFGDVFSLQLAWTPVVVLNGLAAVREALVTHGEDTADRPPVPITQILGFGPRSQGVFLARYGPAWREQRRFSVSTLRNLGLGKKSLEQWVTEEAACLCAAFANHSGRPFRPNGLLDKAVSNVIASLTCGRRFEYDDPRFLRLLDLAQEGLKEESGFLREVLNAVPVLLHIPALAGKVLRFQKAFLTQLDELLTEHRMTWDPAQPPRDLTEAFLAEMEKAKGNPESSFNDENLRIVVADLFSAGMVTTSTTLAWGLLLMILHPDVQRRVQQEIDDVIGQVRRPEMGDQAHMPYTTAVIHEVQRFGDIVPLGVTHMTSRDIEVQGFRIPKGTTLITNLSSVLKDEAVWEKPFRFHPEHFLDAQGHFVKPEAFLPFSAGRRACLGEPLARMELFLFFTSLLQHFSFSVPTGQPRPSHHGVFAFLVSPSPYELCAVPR

Active and inactive are the calls of the source. No cut-off for these calls is given here.

Usually EC50 stands for the concentration that produces a half-maximal response. As a reminder, the IC50 is the concentration that gives 50% inhibition. Take `COc1cccc(-c2nc(SC)c3ccccc3n2)c1`: the result in [1] and in data set [5] was Active. Further, the EC50 in data set [2] was 5120 nM; in data set [3], 2300 nM; at Vitamin D3 receptor it was over 3000 nM. Moreover, on AHR, the Emax at 24 h was 219%. Besides, the outcome in data set [4] was Active. Further, the IC50 on Cytochrome P450 3A4 (read-out: IC50) came out at 22900 nM; on Cytochrome P450 1A2, 420 nM; on Cytochrome P450 2C9, 4190 nM; at Cytochrome P450 2D6 (read-out: IC50), 17300 nM.
Turning to `COc1cccc(-c2nc3ccccc3c(=S)[nH]2)c1`, the result in data set [1] and in data set [5] was Active. In addition, the EC50 in [2] was 690 nM; in data set [3] it was 630 nM; on Vitamin D3 receptor it was 510 nM. Further, the Emax at 24 h on AHR is 266%. For the same molecule, the result in data set [4] was Active. In addition, the IC50 result is “Not Active” on Cytochrome P450 3A4, 750 nM at Cytochrome P450 1A2, 11000 nM at Cytochrome P450 2C9 and “Not Active” on Cytochrome P450 2D6.
`COc1cccc(-c2nc(OC)c3ccccc3n2)c1`: the outcome in data set [1] and in [5] was Active. Moreover, the figures for the EC50 (in data set [2]; in [3]; on Vitamin D3 receptor) were 2070 nM, 7300 nM and 1950 nM, respectively. At AHR, the Emax at 24 h was 290%. Moreover, the result in data set [4] was Active. In addition, the IC50 on Cytochrome P450 3A4 (read-out: IC50) is 12900 nM; at Cytochrome P450 1A2 it was 180 nM; on Cytochrome P450 2C9, 5030 nM; at Cytochrome P450 2D6 it was “Not Active”.
